Assay results as given in ChEMBL document CHEMBL1201862, “PubChem BioAssay data set” (2004).
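1) Cells in 96-well plates. 2) Compound, 48 h, 5 concentrations. 3) Linear interpolation between surrounding doses. 4) Unreached endpoint = highest concentration. Abbreviation: GI50, concentration required for 50% inhibition of growth.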 Activity calls are given as the source filed them. Rule as the data show it: active = GI50 up to about 1.1 µM and inactive = higher.

Tests used:
Assay in all cases: growth of human tumour cells (NCI), 48 h
[1] = tested on: LOX IMVI
[2] = tested on: MDA-N
[3] = tested on: HT-29
[4] = tested on: NCI/ADR-RES
[5] = tested on: MDA-MB-435
[6] = tested on: PC-3
[7] = tested on: HCC 2998
[8] = tested on: Hs-578T
[9] = tested on: Malme-3M
[10] = tested on: SK-OV-3
[11] = tested on: CAKI-1
[12] = tested on: SN12C
[13] = tested on: MCF7
[14] = tested on: RPMI-8226
[15] = tested on: A498
[16] = tested on: HOP-62
[17] = tested on: EKVX
[18] = tested on: SNB-75
[19] = tested on: CCRF-CEM
[20] = tested on: IGROV-1

Measured: GI50

CC(C)OC(=O)NNc1c(Cl)cc(Cl)cc1Cl
inactive: [1] 76.7 µM | [2] 55 µM | [3] > 100 µM | [4] 67.9 µM | [5] 82.8 µM | [6] 36.9 µM | [7] 89.9 µM | [8] 58.2 µM | [9] 20.4 µM | [10] > 100 µM | [11] 58.6 µM | [12] > 100 µM | [13] 40.3 µM | [14] 43.4 µM | [15] 30.5 µM | [16] > 100 µM | [17] 31.6 µM | [18] 99.5 µM | [19] 53.6 µM | [20] 37.3 µM

CC1CC2CCCC(=O)C2=C(O)O1 (stereo not given)
inactive: [1] > 100 µM | [2] > 100 µM | [3] > 100 µM | [4] > 100 µM | [5] > 100 µM | [6] > 100 µM | [7] > 100 µM | [8] > 100 µM | [9] > 100 µM | [10] > 100 µM | [11] > 100 µM | [12] > 100 µM | [13] > 100 µM | [14] > 100 µM | [15] > 100 µM | [16] > 100 µM | [17] 86.7 µM | [18] > 100 µM | [19] > 100 µM | [20] > 100 µM

COC(=O)C1Cc2cc3c(cc2C1=O)CCCC3 (stereo not given)
inactive: [1] 67 µM | [2] > 100 µM | [3] 61.8 µM | [4] 48.9 µM | [5] > 100 µM | [6] 30.8 µM | [7] > 100 µM | [8] 48.4 µM | [9] > 100 µM | [10] 27.1 µM | [11] 54.1 µM | [12] 77.4 µM | [13] 42 µM | [14] 45.9 µM | [15] 53.5 µM | [16] 48.6 µM | [17] 46.8 µM | [18] 70.3 µM | [19] 37.2 µM | [20] 67.5 µM
